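96-well plates; 48 h exposure; 5 concentrations. Endpoints by linear interpolation between flanking doses. Not reached: highest tested concentration assigned. TGI is the concentration that stops growth completely.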
Key:
Assay in all cases: inhibition of tumour cell growth, NCI panel, 48 h
[1] = system: 786-0 renal
[2] = system: A498 renal
[3] = system: A549 NSCLC
[4] = system: ACHN renal
[5] = system: CAKI-1 renal
[6] = system: CCRF-CEM leukemia
[7] = system: COLO 205 colon
[8] = system: DLD-1 colon
[9] = system: DMS 114 small cell lung
[10] = system: DMS 273 small cell lung
[11] = system: EKVX NSCLC
[12] = system: HCC-2998 colon
[13] = system: HCT-116 colon
[14] = system: HL-60(TB) leukemia
[15] = system: HOP-18 NSCLC
[16] = system: HOP-62 NSCLC
[17] = system: HOP-92 NSCLC
[18] = system: HT29 colon
[19] = system: IGROV1 ovarian
[20] = system: K-562 leukemia
[21] = system: KM12 colon
[22] = system: KM20L2 colon
[23] = system: LOX IMVI melanoma
[24] = system: LXFL 529 NSCLC
[25] = system: M14 melanoma
[26] = system: M19-MEL melanoma
[27] = system: MALME-3M melanoma
[28] = system: MOLT-4 leukemia
[29] = system: NCI-H226 lung
[30] = system: NCI-H23 lung
[31] = system: NCI-H460 lung
[32] = system: NCI-H522 lung
[33] = system: OVCAR-3 ovarian
[34] = system: OVCAR-4 ovarian
[35] = system: OVCAR-5 ovarian
[36] = system: OVCAR-8 ovarian
[37] = system: RPMI-8226 leukemia
[38] = system: RXF 393 renal
[39] = system: SF-268 CNS
[40] = system: SF-295 CNS
[41] = system: SF-539 CNS
[42] = system: SK-MEL-28 melanoma
[43] = system: SK-OV-3 ovarian
[44] = system: SN12C renal
[45] = system: SNB-19 CNS
[46] = system: SNB-75 CNS
[47] = system: SNB-78 CNS
[48] = system: SR leukemia
[49] = system: SW-620 colon
[50] = system: TK-10 renal
[51] = system: U251 CNS
[52] = system: UACC-257 melanoma
[53] = system: UACC-62 melanoma
[54] = system: UO-31 renal
[55] = system: XF 498 CNS
[56] = system: HCT-15 colon
[57] = system: RXF-631 renal
[58] = system: SK-MEL-2 melanoma
[59] = system: SK-MEL-5 melanoma
[60] = system: BT-549 breast
[61] = system: DU-145 prostate
[62] = system: HS 578T breast
[63] = system: MCF7 breast
[64] = system: MDA-MB-231 breast
[65] = system: MDA-MB-435
[66] = system: MDA-N
[67] = system: NCI/ADR-RES ovarian
[68] = system: PC-3 prostate
[69] = system: T-47D breast

## NC1=NC(c2ccccc2)CC(c2cc(Cl)ccc2O)=N1 (stereo not given)
[1]
  TGI: 32.5 µM
[2]
  TGI: 34.5 µM
[3]
  TGI: 29 µM
[4]
  TGI: 29.4 µM
[5]
  TGI: 30.1 µM
[6]
  TGI: 51.8 µM
[7]
  TGI: 33.7 µM
[8]
  TGI: 25.9 µM
[9]
  TGI: 25.6 µM
[10]
  TGI: 25.6 µM
[11]
  TGI: 29.5 µM
[12]
  TGI: 29.4 µM
[13]
  TGI: 27.6 µM
[14]
  TGI: 40.1 µM
[15]
  TGI: 35.6 µM
[16]
  TGI: 30.2 µM
[17]
  TGI: 33.5 µM
[18]
  TGI: 32.1 µM
[19]
  TGI: 42.1 µM
[20]
  TGI: 40.8 µM
[21]
  TGI: 26.9 µM
[22]
  TGI: 31.8 µM
[23]
  TGI: 29.5 µM
[24]
  TGI: 28.3 µM
[25]
  TGI: 30.5 µM
[26]
  TGI: 29.5 µM
[27]
  TGI: 38 µM
[28]
  TGI: 33.9 µM
[29]
  TGI: 37.8 µM
[30]
  TGI: 29.4 µM
[31]
  TGI: 29.3 µM
[32]
  TGI: 29 µM
[33]
  TGI: 31.6 µM
[34]
  TGI: 35.8 µM
[35]
  TGI: 34.6 µM
[36]
  TGI: 29.8 µM
[37]
  TGI: 41 µM
[38]
  TGI: 32.9 µM
[39]
  TGI: 30.8 µM
[40]
  TGI: 31 µM
[41]
  TGI: 28.5 µM
[42]
  TGI: 33.5 µM
[43]
  TGI: 33 µM
[44]
  TGI: 26.9 µM
[45]
  TGI: 30.7 µM
[46]
  TGI: 31.7 µM
[47]
  TGI: 42.1 µM
[48]
  TGI: 36.6 µM
[49]
  TGI: 27 µM
[50]
  TGI: 40.5 µM
[51]
  TGI: 29.9 µM
[52]
  TGI: 35.7 µM
[53]
  TGI: 30.4 µM
[54]
  TGI: 29.2 µM
[55]
  TGI: 33.7 µM

## N#C/C(=C\c1ccc2ccccc2c1)c1ccccc1
[1]
  TGI: 41.3 µM
[2]
  TGI: 76.4 µM
[4]
  TGI: 98.3 µM
[5]
  TGI: 50 µM
[6]
  TGI: 78.1 µM
[7]
  TGI: 35.9 µM
[8]
  TGI: > 100 µM
[10]
  TGI: 35.8 µM
[12]
  TGI: 87.9 µM
[13]
  TGI: > 100 µM
[56]
  TGI: > 100 µM
[15]
  TGI: > 100 µM
[16]
  TGI: 74.6 µM
[17]
  TGI: > 100 µM
[18]
  TGI: 74.6 µM
[19]
  TGI: 37.3 µM
[21]
  TGI: > 100 µM
[22]
  TGI: 34.9 µM
[23]
  TGI: > 100 µM
[24]
  TGI: > 100 µM
[25]
  TGI: 65.6 µM
[26]
  TGI: > 100 µM
[28]
  TGI: 94.5 µM
[29]
  TGI: > 100 µM
[30]
  TGI: > 100 µM
[31]
  TGI: 34 µM
[32]
  TGI: 29.6 µM
[33]
  TGI: 28.3 µM
[34]
  TGI: 69.1 µM
[35]
  TGI: > 100 µM
[36]
  TGI: 96.7 µM
[37]
  TGI: > 100 µM
[38]
  TGI: 65 µM
[57]
  TGI: > 100 µM
[39]
  TGI: > 100 µM
[40]
  TGI: 50.4 µM
[41]
  TGI: 36.8 µM
[58]
  TGI: 85 µM
[42]
  TGI: > 100 µM
[59]
  TGI: 66.5 µM
[43]
  TGI: 70.7 µM
[44]
  TGI: > 100 µM
[46]
  TGI: 48.6 µM
[47]
  TGI: 84.7 µM
[48]
  TGI: > 100 µM
[49]
  TGI: > 100 µM
[50]
  TGI: 75.7 µM
[51]
  TGI: 57.1 µM
[52]
  TGI: > 100 µM
[53]
  TGI: 36.7 µM
[54]
  TGI: 86.7 µM

## COC1(C)CP(=O)(OC(C)C)CC(C)=C1Cl (stereo not given)
[1]
  TGI: 60 µM
[2]
  TGI: 37.6 µM
[3]
  TGI: > 100 µM
[4]
  TGI: > 100 µM
[60]
  TGI: 46.6 µM
[5]
  TGI: 36.8 µM
[6]
  TGI: 15.7 µM
[7]
  TGI: 30.2 µM
[61]
  TGI: 82.7 µM
[11]
  TGI: 29.6 µM
[12]
  TGI: 49.1 µM
[13]
  TGI: 21 µM
[56]
  TGI: 29.2 µM
[14]
  TGI: 29.1 µM
[16]
  TGI: 51.7 µM
[17]
  TGI: 25.6 µM
[62]
  TGI: > 100 µM
[18]
  TGI: 26.5 µM
[19]
  TGI: 29.6 µM
[20]
  TGI: 7.89 µM
[21]
  TGI: 34 µM
[23]
  TGI: 39.4 µM
[25]
  TGI: 46.2 µM
[27]
  TGI: 40.8 µM
[63]
  TGI: 18.6 µM
[64]
  TGI: 34.1 µM
[65]
  TGI: > 100 µM
[66]
  TGI: 47.7 µM
[28]
  TGI: > 100 µM
[29]
  TGI: 78.2 µM
[30]
  TGI: 32.4 µM
[31]
  TGI: 66.3 µM
[32]
  TGI: 24.8 µM
[67]
  TGI: > 100 µM
[33]
  TGI: 24.2 µM
[34]
  TGI: 28.6 µM
[35]
  TGI: 39 µM
[36]
  TGI: > 100 µM
[68]
  TGI: 77.9 µM
[37]
  TGI: 24.4 µM
[38]
  TGI: 55.2 µM
[39]
  TGI: > 100 µM
[40]
  TGI: 51 µM
[41]
  TGI: 39.2 µM
[58]
  TGI: 45.9 µM
[42]
  TGI: 61.3 µM
[59]
  TGI: 26.6 µM
[43]
  TGI: > 100 µM
[44]
  TGI: 45.8 µM
[45]
  TGI: 63.7 µM
[46]
  TGI: > 100 µM
[48]
  TGI: > 100 µM
[49]
  TGI: 32.4 µM
[69]
  TGI: 55.6 µM
[50]
  TGI: 33.2 µM
[51]
  TGI: 48.9 µM
[52]
  TGI: 72.1 µM
[53]
  TGI: 25.6 µM
[54]
  TGI: 34.2 µM

From PubChem BioAssay (NCI)
